From patent US11479802B2, “Assays for screening activity of modulators of members of the hydroxy steroid (17-beta) dehydrogenase (HSD17B) family” (Regeneron Pharmaceuticals, Inc., priority 2017, dated 2022)
Structures can show the parent of a compound that is named as a salt.

Target: T1, human HSD17B13 (Homo sapiens, UniProt Q7Z5P4)
T1 sequence (Q7Z5P4 20-300): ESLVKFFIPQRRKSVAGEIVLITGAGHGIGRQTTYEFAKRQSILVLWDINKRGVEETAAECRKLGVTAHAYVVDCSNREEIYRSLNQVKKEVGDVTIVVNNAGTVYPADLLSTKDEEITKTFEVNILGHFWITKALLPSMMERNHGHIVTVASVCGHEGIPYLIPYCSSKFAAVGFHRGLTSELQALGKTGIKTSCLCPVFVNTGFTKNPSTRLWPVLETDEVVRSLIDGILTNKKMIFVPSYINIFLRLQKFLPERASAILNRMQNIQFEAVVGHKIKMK
Experiment: Substrate screening of steroid and bioactive lipid libraries against purified recombinant HSD17B13 (NADH-linked luciferase assay)
Assay type: biochemical
Conditions: for HSD17B13 Enzymatic Activity Relative Light Units: 500 μM NAD+, 100 ng enzyme, 3 hours at 23° C.; for HSD17B13 Enzymatic Activity Percent Estradiol Control: normalized to 50 μM estradiol after subtraction of 5% DMSO
In short: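 Substrates (bioactive lipids 5 μM, steroids 50 μM; 5% DMSO) tested with 500 μM NAD+ and 100 ng recombinant human HSD17B13 in 0.2 M Tris-HCl pH 7.5, 3 h, 23° C. Luminescent NADH detection followed 1 h later; RLU normalized to estradiol (50 μM, 100%) and DMSO (0%) controls.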

[1] = Bioactive Lipid Library, 5 μM bioactive lipid (Estradiol Control 50 μM)
[2] = Bioactive Lipid Library, 5 μM bioactive lipid

## C[C@]12CC[C@H](O)C[C@H]1CC[C@@H]1[C@@H]2CC[C@]2(C)[C@@](O)(c3ccoc3)CC[C@]12O [Rostafuroxin]
Steroid Library, 50 μM steroid
  HSD17B13 Enzymatic Activity Relative Light Units: 187520 RLU
  HSD17B13 Enzymatic Activity Percent Estradiol Control: 0.47%

## CCCCCC=CCC=CCC=CCC(O)C(O)CCCC(=O)O (racemic) [(±)5(6)-DiHET]
[1]
  HSD17B13 Enzymatic Activity Relative Light Units: 353120 RLU
[2]
  HSD17B13 Enzymatic Activity Percent Estradiol Control: 4.93%

## CCCCC/C=C\C/C=C\C=C\[C@@H](O)CCCCCCC(=O)O [8(S)-HETrE]
[1]
  HSD17B13 Enzymatic Activity Relative Light Units: 412960 RLU
[2]
  HSD17B13 Enzymatic Activity Percent Estradiol Control: 9.38%

## Ptdlns-(4,5)-P2 (1,2-dioctanoyl) (sodium salt)
[1]
  HSD17B13 Enzymatic Activity Relative Light Units: 348680 RLU
[2]
  HSD17B13 Enzymatic Activity Percent Estradiol Control: 1.79%

## CC/C=C\C[C@H](O)/C=C/[C@H]1C=CC(=O)[C@@H]1C/C=C\CCCC(=O)O [Prostaglandin A3]
[1]
  HSD17B13 Enzymatic Activity Relative Light Units: 227000 RLU
[2]
  HSD17B13 Enzymatic Activity Percent Estradiol Control: −4.43%

## CCCCCC(=O)CC[C@@H]1[C@@H](CC(=O)CCCCC(=O)O)[C@@H](O)C[C@H]1O [6,15-diketo-13,14-dihydro Prostaglandin F1α]
[1]
  HSD17B13 Enzymatic Activity Relative Light Units: 262680 RLU
[2]
  HSD17B13 Enzymatic Activity Percent Estradiol Control: −1.61%

## CCCCCC(O)C=CC1OC(=O)CC(O)C1CC=CCC(=O)O (stereo not shown) [11-dehydro-2,3-dinor Thromboxane B2]
[1]
  HSD17B13 Enzymatic Activity Relative Light Units: 183120 RLU
[2]
  HSD17B13 Enzymatic Activity Percent Estradiol Control: −7.90%

## C[C@]12CCC(=O)C=C1CC[C@@H]1[C@@H]2CC[C@]2(C)C(=O)CC[C@@H]12 [Androstenedione]
Steroid Library, 50 μM steroid
  HSD17B13 Enzymatic Activity Relative Light Units: 172400 RLU
  HSD17B13 Enzymatic Activity Percent Estradiol Control: 0.21%

## CCCCC[C@@H](/C=C/C=C\C/C=C\CCCCC(=O)O)OO [13(S)-HpOTrE(γ)]
[1]
  HSD17B13 Enzymatic Activity Relative Light Units: 268840 RLU
[2]
  HSD17B13 Enzymatic Activity Percent Estradiol Control: −1.34%

## CCCCC/C=C\C[C@@H](O)/C=C/C=C/C=C/[C@@H](O)CCCC(=O)O (relative stereo) [6-trans Leukotriene B4]
[1]
  HSD17B13 Enzymatic Activity Relative Light Units: 1209480 RLU
[2]
  HSD17B13 Enzymatic Activity Percent Estradiol Control: 68.61%

## O=C(CCC/C=C\C/C=C\C/C=C\C/C=C\CCCCCO)NCCO [20-HETE Ethanolamide]
[1]
  HSD17B13 Enzymatic Activity Relative Light Units: 879760 RLU
[2]
  HSD17B13 Enzymatic Activity Percent Estradiol Control: 41.89%

## CC/C=C\CC(O)/C=C/C=C\C/C=C\C/C=C\CCCC(=O)O (racemic) [(±)15-HEPE]
[1]
  HSD17B13 Enzymatic Activity Relative Light Units: 578600 RLU
[2]
  HSD17B13 Enzymatic Activity Percent Estradiol Control: 21.70%

## CC/C=C\C/C=C\C/C=C\C/C=C\CC(O)/C=C/C=C\CCC(=O)O (racemic) [(±)8-HDHA]
[1]
  HSD17B13 Enzymatic Activity Relative Light Units: 773120 RLU
[2]
  HSD17B13 Enzymatic Activity Percent Estradiol Control: 36.16%

## CCCCC/C=C\C\C=C/C=C/C=C/[C@@H](O)[C@@H](O)CCCC(=O)O [5(S),6(R)-DiHETE]
[1]
  HSD17B13 Enzymatic Activity Relative Light Units: 166040 RLU
[2]
  HSD17B13 Enzymatic Activity Percent Estradiol Control: 1.66%

## CC(=O)OC1=CC[C@H]2[C@@H]3CC[C@H]4CC=CC[C@]4(C)[C@H]3CC[C@]12C [5alpha-Androsta-2,16-dien-17-yl acetate]
Steroid Library, 50 μM steroid
  HSD17B13 Enzymatic Activity Relative Light Units: 197640 RLU
  HSD17B13 Enzymatic Activity Percent Estradiol Control: 0.65%

## CCCCC[C@@H](O)/C=C/C=C\CCCCCCCCCC(=O)O [15(R)-HEDE]
[1]
  HSD17B13 Enzymatic Activity Relative Light Units: 1862960 RLU
[2]
  HSD17B13 Enzymatic Activity Percent Estradiol Control: 117.20%

## C[C@@H](O)CCC[C@H](O)/C=C/[C@@H]1[C@@H](CCCCCCC(=O)O)[C@@H](O)C[C@H]1O [19(R)-hydroxy Prostaglandin F1α]
[1]
  HSD17B13 Enzymatic Activity Relative Light Units: 207560 RLU
[2]
  HSD17B13 Enzymatic Activity Percent Estradiol Control: −5.97%

## CCCCCC(=O)CC[C@@H]1[C@H](C/C=C\CCCC(=O)O)[C@@H](O)C[C@H]1O [8-iso-13,14-dihydro-15-keto Prostaglandin F2α]
[1]
  HSD17B13 Enzymatic Activity Relative Light Units: 212520 RLU
[2]
  HSD17B13 Enzymatic Activity Percent Estradiol Control: −5.58%

## CCCCC[C@H](O)/C=C/C=C\C/C=C\CCCCC(=O)O [13(S)-HOTrE(γ)]
[1]
  HSD17B13 Enzymatic Activity Relative Light Units: 458840 RLU
[2]
  HSD17B13 Enzymatic Activity Percent Estradiol Control: 12.79%

## CCCCC/C=C\C[C@H](O)/C=C/C=C\C/C=C\CCCC(=O)O (racemic) [(±)12-HETE]
[1]
  HSD17B13 Enzymatic Activity Relative Light Units: 1324640 RLU
[2]
  HSD17B13 Enzymatic Activity Percent Estradiol Control: 77.17%

## O=P([O-])(O)O[C@@H]1C(O)[C@H](OP(=O)([O-])O)[C@H](O)C(O)[C@H]1O.[Na+].[Na+] (stereo partly drawn) [D-myo-Inositol-1,5-diphosphate (sodium salt)]
[1]
  HSD17B13 Enzymatic Activity Relative Light Units: 443840 RLU
[2]
  HSD17B13 Enzymatic Activity Percent Estradiol Control: 8.97%

## CC/C=C\C/C=C\C/C=C\C=C\C(O)C/C=C\CCCC(=O)O (racemic) [(±)8-HEPE]
[1]
  HSD17B13 Enzymatic Activity Relative Light Units: 472800 RLU
[2]
  HSD17B13 Enzymatic Activity Percent Estradiol Control: 13.83%

## C[C@]12CCC(=O)C(O)=C1CC[C@@H]1[C@@H]2CC[C@]2(C)C(=O)CC[C@@H]12 [Formestane]
Steroid Library, 50 μM steroid
  HSD17B13 Enzymatic Activity Percent Estradiol Control: 0.63%

## CCCCC/C=C\C/C=C\C[C@H](O)/C=C/C=C\CCCC(=O)O [9(S)-HETE]
[1]
  HSD17B13 Enzymatic Activity Relative Light Units: 497640 RLU
[2]
  HSD17B13 Enzymatic Activity Percent Estradiol Control: 15.68%

## O=P(O)(O)O[C@@H]1[C@H](O)[C@H](O)[C@@H](OP(=O)(O)O)[C@H](OP(=O)(O)O)[C@H]1O [D-myo-Inositol-1,4,5-triphosphate (potassium salt)]
[1]
  HSD17B13 Enzymatic Activity Relative Light Units: 358400 RLU
[2]
  HSD17B13 Enzymatic Activity Percent Estradiol Control: 2.52%

## CCCCC/C=C\C\C=C/C=C/C=C/[C@H](O)[C@@H](O)CCCC(=O)O [5(S),6(S)-DiHETE]
[1]
  HSD17B13 Enzymatic Activity Relative Light Units: 309080 RLU
[2]
  HSD17B13 Enzymatic Activity Percent Estradiol Control: 4.07%

## CCCCC/C=C\C=C\C(=O)CCCCCCCC(=O)O [9-OxoODE]
[1]
  HSD17B13 Enzymatic Activity Relative Light Units: 359280 RLU
[2]
  HSD17B13 Enzymatic Activity Percent Estradiol Control: 5.39%

## CCC1OC1C/C=C\C/C=C\C/C=C\C/C=C\CCCC(=O)O (racemic) [(±)17(18)-EpETE]
[1]
  HSD17B13 Enzymatic Activity Relative Light Units: 316240 RLU
[2]
  HSD17B13 Enzymatic Activity Percent Estradiol Control: 2.19%

## CCCCC[C@H](O)/C=C/[C@@H]1[C@@H](C/C=C\CCCC(=O)O)[C@@H]2C[C@H]1OO2 [Prostaglandin H2]
[1]
  HSD17B13 Enzymatic Activity Relative Light Units: 166640 RLU
[2]
  HSD17B13 Enzymatic Activity Percent Estradiol Control: −9.20%

## C[C@@H](O)CCC[C@H](O)/C=C/[C@H]1[C@H](O)CC(=O)[C@@H]1C/C=C\CCCC(=O)O [19(R)-hydroxy Prostaglandin E2]
[1]
  HSD17B13 Enzymatic Activity Relative Light Units: 347280 RLU
[2]
  HSD17B13 Enzymatic Activity Percent Estradiol Control: 5.07%

## CCCCC/C=C\C/C=C\C[C@@H](O)/C=C/C=C\CCCC(=O)O [9(R)-HETE]
[1]
  HSD17B13 Enzymatic Activity Relative Light Units: 1656640 RLU
[2]
  HSD17B13 Enzymatic Activity Percent Estradiol Control: 101.86%

## CCCCC[C@H]1O[C@H]1C/C=C\C/C=C\C/C=C\CCCC(=O)NCCO [14(15)-EET Ethanolamide]
[1]
  HSD17B13 Enzymatic Activity Relative Light Units: 428760 RLU
[2]
  HSD17B13 Enzymatic Activity Percent Estradiol Control: 7.83%

## CCCCC[C@H](O)/C=C/[C@H]1[C@H](O)CC(=O)[C@@H]1C/C=C\CCCC(=O)NCCCCCNC(=O)CCCC[C@H]1SC[C@@H]2NC(=O)N[C@@H]21 [Prostaglandin E2-biotin]
[1]
  HSD17B13 Enzymatic Activity Relative Light Units: 389960 RLU
[2]
  HSD17B13 Enzymatic Activity Percent Estradiol Control: 4.90%

## CCCCC[C@H](O)/C=C/[C@@H]1[C@H](C/C=C\CC(=O)O)[C@@H](O)C[C@H]1O [2,3-dinor-8-iso Prostaglandin F2α]
[1]
  HSD17B13 Enzymatic Activity Relative Light Units: 230040 RLU
[2]
  HSD17B13 Enzymatic Activity Percent Estradiol Control: −4.19%
